Source: patent US8318708B2, “Use of vitamin D receptor agonists, ligands, and precursors to treat pancreatic fibrosis” (Salk Institute for Biological Studies, priority 2007, dated 2012)

Experiments:
VDR [1] = assay: Western blot of VDR in hepatocytes treated with TGF-β1; assay type: cell-based, rat; human; details: TGF-β1 2 ng/mL, 24 hours, FIG. 14
Method: Primary rat hepatocytes were isolated from Sprague-Dawley rats by collagenase in situ perfusion and plated on collagen in Williams E medium. The immortalized human hepatocyte (IHH) cell line was cultured in DMEM/F12+GlutaMax with insulin and dexamethasone. Primary rat hepatocytes or immortalized human hepatocytes were cultured for two days, then subsequently treated with TGF-β1 (2 ng/mL human, recombinant expressed in CHO cells from Sigma-Aldrich, # T7039) for 24 hours and compared to untreated controls. Protein was prepared from harvested cells and western blotting for VDR was accomplished using a specific anti-VDR antibody (anti-human VDR antibody from R&D systems CAT # PP-H4537-00 and rat anti-VDR monoclonal antibody from Chemocon International CAT # MAB1360). Recombinant human VDR protein was included as a positive control.

hepatocytes = assay: Illumina Sentrix arrays: hepatocytes treated with TGF-β1 and calcitriol (Tables 9 and 10); assay type: cell-based; details: rat hepatocytes, TGF-β1 2 ng/mL, 24 h
Method: Cells were cultured and treated as described in Example 14. Gene expression was determined using Illumina Sentrix expression arrays, rat version 1, according to the manufacturer's instructions.
Triplicate biologic replicates were assayed for each treatment.

primary HSCs = assay: Illumina array: TGFβ1-treated primary rat HSCs with vitamin D3 (Table 4); details: rat HSCs 24 h; TGFβ1 100 pM, vitamin D3 1 nM
Method: (§1) For Illumina microarray analysis, Illumina TotalPrep RNA Amplification Kit (Ambion; Catalog # IL1791) was used with the manufacturer's instructions for the RNA amplification. […] Essentially, biotinylated cRNA was prepared according to the manufacturer's directions starting with 200 ng total RNA. Hybridization to the Illumina Sentrix RatRef-12 v.1 and Mouse RefSeq version 2 Expression BeadChips (Illumina, Inc., San Diego, Calif.), washing and scanning were performed according to the Illumina BeadStation 500× manual (revision C). […] RNA is isolated using Trizol and the quality/integrity of the total RNA verified using a Bioanalyzer (Agilent).
(§2) Microarray experiments were repeated two times with RNA from two experiments where HSCs were isolated from two different rats and for each condition triplicate samples were used. The “Detection Score” was used to determine expression using the Illumina platform. It is a statistical measure in the BeadStudio software (version 1.5.0.34), which is computed based on the Z-value of a gene relative to the Z-value of the negative controls. The Illumina data were adjusted (“normalized”) using a cubic spline function. […] The expression difference score, DiffScore, takes into account background noise and sample variability. […] Illumina expression arrays utilize gene-specific 50-mer oligonucleotide probes with an average of 30 replicates of each probe bead per individual array.
The Illumina platform described above was used to identify genome-wide effects of vitamin D3-activated VDR on TGFβ signaling in primary rat HSCs. Isolated primary HSCs were cultured on plastic tissue culture plates for 40 hours prior to treatment with or without vitamin D3 (1 nM) in the presence or absence of TGFβ1 (100 pM) for 24 hours. Cells were then harvested, total RNA extracted, and biotin labeled cRNA was prepared for hybridization to an Illumina Rat RefSeq version 1 genome array. […] The data generated from these arrays was processed using Illumina BeadStudio software to identify gene expression changes between the different samples. The vitamin D3 mediated changes on TGFβ1 signaling were identified by comparing TGFβ1 and co-treated TGFβ1/vitamin D3 samples.

HSCs = details: rat HSCs 24 h; LPS 15 ng/ml, TGFβ 2 ng/ml, calcitriol 10 nM; control = 1
Method: as §1, §2
Two different HSCs from different rats were used for the lumina microarray analysis. […] Values are expressed as fold change relative to control cells treated with vehicle alone.

VDR [2] = biological target: T1, VDR (Rattus norvegicus, UniProt P13053); assay: Western blot of VDR in Kupffer cells (KCs); assay type: cell-based; design: endogenous in cells; host or cells: primary rat hepatic stellate cells, sinusoidal endothelial cells, Kupffer cells and hepatocytes (Sprague-Dawley rats); details: FIG. 10B
T1 sequence (P13053 1-423): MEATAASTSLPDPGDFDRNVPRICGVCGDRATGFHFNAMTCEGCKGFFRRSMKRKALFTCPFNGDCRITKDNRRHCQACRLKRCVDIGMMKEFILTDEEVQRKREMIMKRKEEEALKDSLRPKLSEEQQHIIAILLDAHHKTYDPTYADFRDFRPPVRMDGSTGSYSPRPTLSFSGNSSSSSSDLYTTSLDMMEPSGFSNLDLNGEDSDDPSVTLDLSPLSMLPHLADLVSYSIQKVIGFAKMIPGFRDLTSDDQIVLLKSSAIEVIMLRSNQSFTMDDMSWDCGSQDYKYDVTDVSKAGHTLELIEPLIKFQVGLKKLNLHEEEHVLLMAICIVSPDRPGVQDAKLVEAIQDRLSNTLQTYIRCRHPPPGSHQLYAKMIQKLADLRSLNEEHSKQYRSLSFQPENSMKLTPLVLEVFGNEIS
Source text: Hepatic sinusoidal endothelial cells (SECs) and Kupffer cells (KCs) were elutriated from rat liver and maintained in cell culture.

VDR [3] = biological target: T1, VDR; assay: QPCR of VDR, Cyp24a1 and Hnf4α mRNA in primary rat hepatocytes; assay type: cell-based; design: endogenous in cells; host or cells: primary rat hepatic stellate cells, sinusoidal endothelial cells, Kupffer cells and hepatocytes (Sprague-Dawley rats); details: 24 hours, TGF-β1 2 ng/mL, calcitriol 10 nM

TGF-β1: transforming growth factor beta 1; human recombinant from Sigma-Aldrich T7039
Increase in VDR expression (western blot) (VDR [1]): at least 5 fold | Abcb4 gene expression (hepatocytes): 96.93 | Abcg2 gene expression (hepatocytes): 913.91 | Abcg4 gene expression (hepatocytes): 95.82 | Ccl3 gene expression (hepatocytes): 540.53 | Ccl4 gene expression (hepatocytes): 380.06 | Ccl7 gene expression (hepatocytes): 1303.89 | Ccl12 gene expression (hepatocytes): 368.02 | Cd44 gene expression (hepatocytes): 680.16 | Cxcr4 gene expression (hepatocytes): 164.68 | Cyp1a2 gene expression (hepatocytes): 135.53 | Cyp2d1 gene expression (hepatocytes): 147.68 | Cyp2d5 gene expression (hepatocytes): 338.34 | Cyp3a23/3a1 gene expression (hepatocytes): 380.28 | Gstm1 gene expression (hepatocytes): 2230.15 | Gstm2 gene expression (hepatocytes): 715.15 | Gsto1 gene expression (hepatocytes): 1364.06 | Il1a gene expression (hepatocytes): 675.41 | Il1b gene expression (hepatocytes): 1551.37 | Jak2 gene expression (hepatocytes): 669.28 | Mmp9 gene expression (hepatocytes): 159.27 | Nos2 gene expression (hepatocytes): 90.7 | Slc7a6os gene expression (hepatocytes): 241.22 | Slc25a4 gene expression (hepatocytes): 671.16 | Slc25a19 gene expression (hepatocytes): 195.9 | Slc28a1 gene expression (hepatocytes): 50.32 | Slc28a2 gene expression (hepatocytes): 157.29 | Slc35a4 gene expression (hepatocytes): 157.88 | Slc37a4 gene expression (hepatocytes): 246.55 | Tlr2 gene expression (hepatocytes): 978.98 | Tlr7 gene expression (hepatocytes): 110.03 | Ugt2b5 gene expression (hepatocytes): 155.32 | cyp2a1 gene expression (hepatocytes): 216.95 | cyp2c22 gene expression (hepatocytes): 2009.34 | cyp4a10 gene expression (hepatocytes): 91.71 | cyp24a1 gene expression (hepatocytes): 56.9 | slc25a1 gene expression (hepatocytes): 1375.94 | slc25a5 gene expression (hepatocytes): 2038.43 | slc26a1 gene expression (hepatocytes): 181.21 | slc39a1 gene expression (hepatocytes): 489.71 | Mmp10 gene change (primary HSCs): ↓ | Mmp13 gene change (primary HSCs): N/C | Ccl5 gene expression (HSCs): 0.957 fold change | Ccl12 gene expression (HSCs): 1.167 fold change | Ccl20 gene expression (HSCs): 0.999 fold change | Col1a1 gene expression (HSCs): 3.014 fold change | Col1a2 gene expression (HSCs): 2.256 fold change | Col3a1 gene expression (HSCs): 1.878 fold change | Col5a1 gene expression (HSCs): 2.322 fold change | Col5a2 gene expression (HSCs): 1.583 fold change | Col6a3 gene expression (HSCs): 1.611 fold change | Col8a1 gene expression (HSCs): 2.240 fold change | Csf2 gene expression (HSCs): 0.803 fold change | Ctgf gene expression (HSCs): 1.919 fold change | Cx3cl1 gene expression (HSCs): 0.864 fold change | Cxcl5 gene expression (HSCs): 0.971 fold change | Cxcl9 gene expression (HSCs): 0.875 fold change | Cxcl11 gene expression (HSCs): 1.05 fold change | Icam1 gene expression (HSCs): 1.371 fold change | Il1a gene expression (HSCs): 0.517 fold change | Il1b gene expression (HSCs): 0.322 fold change | Il6 gene expression (HSCs): 0.791 fold change | Il10 gene expression (HSCs): 0.837 fold change | Mmp7 gene expression (HSCs): 1.692 fold change | Mmp10 gene expression (HSCs): 1.856 fold change | Mmp13 gene expression (HSCs): 1.342 fold change | Smad2 gene expression (HSCs): 1.381 fold change | Smad3 gene expression (HSCs): 1.116 fold change | Smad4 gene expression (HSCs): 1.325 fold change | Tgfb1 gene expression (HSCs): 1.502 fold change | Tgfbr1 gene expression (HSCs): 1.317 fold change | Timp1 gene expression (HSCs): 1.026 fold change | Timp2 gene expression (HSCs): 1.823 fold change | Tlr2 gene expression (HSCs): 1.092 fold change | Tlr4 gene expression (HSCs): 1.349 fold change | Tnf gene expression (HSCs): 1.078 fold change | Tnfrsf5 gene expression (HSCs): 1.339 fold change | Tnfrsf14 gene expression (HSCs): 1.373 fold change | Vcam1 gene expression (HSCs): 1.482 fold change | VDR protein expression (VDR [2]): induced | Cyp24a1 mRNA expression (VDR [3]): no effect | HNF4α expression (VDR [3]): some increase | VDR mRNA expression (VDR [3]): capable of inducing
